Blank lines part the entries; values can stand above or below the compound they belong to.
What was measured:
[1] = Displacement of [3H]AMPA from rat AMPA receptor in rat brain membranes
[2] = biological target: Metabotropic glutamate receptor 5 (Homo sapiens, UniProt P41594); assay: Binding affinity to mGluR5 receptor expressed in BHK cells; type: cell-based
[3] = biological target: Metabotropic glutamate receptor 2 (Homo sapiens, UniProt Q14416); assay: Displacement of [3H]LY341495 from mGluR2 receptor expressed in BHK cells; type: cell-based
Sequence of Metabotropic glutamate receptor 2 (Q14416 whole entry): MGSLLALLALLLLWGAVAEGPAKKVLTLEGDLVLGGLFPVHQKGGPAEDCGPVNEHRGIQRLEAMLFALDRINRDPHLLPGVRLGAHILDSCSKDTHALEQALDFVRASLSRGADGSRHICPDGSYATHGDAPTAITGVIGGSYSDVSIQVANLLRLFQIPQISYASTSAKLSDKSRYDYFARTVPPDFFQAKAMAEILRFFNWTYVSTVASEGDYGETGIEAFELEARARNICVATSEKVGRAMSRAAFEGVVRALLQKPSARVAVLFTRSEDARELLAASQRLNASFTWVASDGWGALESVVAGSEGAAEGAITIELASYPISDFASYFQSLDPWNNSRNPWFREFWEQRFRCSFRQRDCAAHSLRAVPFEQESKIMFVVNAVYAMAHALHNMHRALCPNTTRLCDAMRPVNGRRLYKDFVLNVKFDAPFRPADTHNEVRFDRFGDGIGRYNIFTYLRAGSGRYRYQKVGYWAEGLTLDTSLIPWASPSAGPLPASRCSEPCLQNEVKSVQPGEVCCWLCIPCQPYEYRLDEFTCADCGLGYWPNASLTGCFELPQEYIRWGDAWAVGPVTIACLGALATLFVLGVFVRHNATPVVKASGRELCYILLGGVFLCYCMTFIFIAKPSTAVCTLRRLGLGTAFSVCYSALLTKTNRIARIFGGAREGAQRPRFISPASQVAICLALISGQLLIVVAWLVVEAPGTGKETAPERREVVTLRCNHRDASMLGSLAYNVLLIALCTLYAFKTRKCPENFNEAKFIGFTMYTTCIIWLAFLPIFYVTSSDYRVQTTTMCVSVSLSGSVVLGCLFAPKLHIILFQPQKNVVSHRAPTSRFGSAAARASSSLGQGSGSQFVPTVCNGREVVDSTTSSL

[4] = biological target: Metabotropic glutamate receptor 4 (Homo sapiens, UniProt Q14833); assay: Displacement of [3H]LAP4 from mGluR4 receptor expressed in BHK cells; type: cell-based
Sequence of Metabotropic glutamate receptor 4 (Q14833 whole entry): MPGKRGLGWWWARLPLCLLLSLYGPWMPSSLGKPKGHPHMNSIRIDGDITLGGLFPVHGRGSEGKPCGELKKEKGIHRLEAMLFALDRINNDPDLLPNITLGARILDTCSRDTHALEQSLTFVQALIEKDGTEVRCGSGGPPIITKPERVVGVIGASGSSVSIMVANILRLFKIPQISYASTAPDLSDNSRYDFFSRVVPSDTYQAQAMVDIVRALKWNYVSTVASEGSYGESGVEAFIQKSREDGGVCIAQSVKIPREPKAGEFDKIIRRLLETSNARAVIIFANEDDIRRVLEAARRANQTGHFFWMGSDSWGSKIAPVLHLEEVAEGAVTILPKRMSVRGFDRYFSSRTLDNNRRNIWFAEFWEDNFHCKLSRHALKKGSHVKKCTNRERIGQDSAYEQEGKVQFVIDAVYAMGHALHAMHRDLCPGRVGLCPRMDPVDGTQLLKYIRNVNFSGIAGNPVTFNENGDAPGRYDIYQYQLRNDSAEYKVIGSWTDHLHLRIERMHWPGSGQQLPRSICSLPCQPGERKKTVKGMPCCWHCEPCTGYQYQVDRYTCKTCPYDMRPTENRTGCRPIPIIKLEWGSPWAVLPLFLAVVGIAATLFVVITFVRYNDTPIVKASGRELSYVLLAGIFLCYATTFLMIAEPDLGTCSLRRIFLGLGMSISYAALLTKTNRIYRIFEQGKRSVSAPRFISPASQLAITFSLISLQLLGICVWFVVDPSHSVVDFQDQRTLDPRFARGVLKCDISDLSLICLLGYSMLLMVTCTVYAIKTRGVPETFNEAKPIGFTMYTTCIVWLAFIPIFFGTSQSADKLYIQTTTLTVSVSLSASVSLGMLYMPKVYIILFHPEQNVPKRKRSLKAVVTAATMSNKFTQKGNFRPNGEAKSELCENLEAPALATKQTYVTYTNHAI

[5] = Displacement of [3H]kainic acid from rat KA receptor in rat brain membranes
[6] = biological target: Metabotropic glutamate receptor 1 (Homo sapiens, UniProt Q13255); assay: Displacement of [3H]quisqualate from mGluR1 receptor expressed in BHK cells; type: cell-based
Sequence of Metabotropic glutamate receptor 1 (Q13255 whole entry): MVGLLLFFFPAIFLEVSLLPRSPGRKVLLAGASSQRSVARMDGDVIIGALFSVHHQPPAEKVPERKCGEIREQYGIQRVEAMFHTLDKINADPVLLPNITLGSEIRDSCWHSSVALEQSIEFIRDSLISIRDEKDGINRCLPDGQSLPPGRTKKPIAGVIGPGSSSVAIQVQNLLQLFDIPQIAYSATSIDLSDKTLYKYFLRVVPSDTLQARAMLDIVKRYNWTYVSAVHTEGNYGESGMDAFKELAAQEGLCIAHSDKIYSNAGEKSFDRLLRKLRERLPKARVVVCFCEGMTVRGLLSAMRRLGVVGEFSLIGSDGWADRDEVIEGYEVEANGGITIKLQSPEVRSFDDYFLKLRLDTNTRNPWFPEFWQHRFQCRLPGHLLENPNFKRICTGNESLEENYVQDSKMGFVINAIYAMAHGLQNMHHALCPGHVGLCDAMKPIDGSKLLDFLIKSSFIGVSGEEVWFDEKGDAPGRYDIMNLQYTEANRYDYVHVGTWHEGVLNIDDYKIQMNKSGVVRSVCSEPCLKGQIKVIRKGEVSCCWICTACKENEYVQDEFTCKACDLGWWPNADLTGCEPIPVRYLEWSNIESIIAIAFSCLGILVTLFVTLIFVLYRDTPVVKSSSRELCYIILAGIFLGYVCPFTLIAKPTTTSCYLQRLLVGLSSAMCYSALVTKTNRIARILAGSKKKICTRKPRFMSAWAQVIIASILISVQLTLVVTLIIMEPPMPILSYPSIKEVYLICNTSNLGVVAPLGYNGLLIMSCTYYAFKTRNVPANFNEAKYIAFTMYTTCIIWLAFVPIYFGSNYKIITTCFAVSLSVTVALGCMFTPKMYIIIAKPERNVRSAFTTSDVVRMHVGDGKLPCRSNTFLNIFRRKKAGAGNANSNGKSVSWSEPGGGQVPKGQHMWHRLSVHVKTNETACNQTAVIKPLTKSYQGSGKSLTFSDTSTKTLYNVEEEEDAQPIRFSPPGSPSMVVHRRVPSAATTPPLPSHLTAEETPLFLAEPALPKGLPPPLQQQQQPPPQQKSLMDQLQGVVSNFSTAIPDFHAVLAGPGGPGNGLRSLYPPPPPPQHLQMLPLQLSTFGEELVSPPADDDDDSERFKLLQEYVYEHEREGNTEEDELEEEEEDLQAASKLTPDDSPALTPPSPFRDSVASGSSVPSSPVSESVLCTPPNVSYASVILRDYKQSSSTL

[7] = biological target: Glutamate NMDA receptor; assay: Displacement of [3H]CGP-39653 from rat NMDA receptor in rat brain membranes

Sequence of Metabotropic glutamate receptor 5 (P41594 whole entry): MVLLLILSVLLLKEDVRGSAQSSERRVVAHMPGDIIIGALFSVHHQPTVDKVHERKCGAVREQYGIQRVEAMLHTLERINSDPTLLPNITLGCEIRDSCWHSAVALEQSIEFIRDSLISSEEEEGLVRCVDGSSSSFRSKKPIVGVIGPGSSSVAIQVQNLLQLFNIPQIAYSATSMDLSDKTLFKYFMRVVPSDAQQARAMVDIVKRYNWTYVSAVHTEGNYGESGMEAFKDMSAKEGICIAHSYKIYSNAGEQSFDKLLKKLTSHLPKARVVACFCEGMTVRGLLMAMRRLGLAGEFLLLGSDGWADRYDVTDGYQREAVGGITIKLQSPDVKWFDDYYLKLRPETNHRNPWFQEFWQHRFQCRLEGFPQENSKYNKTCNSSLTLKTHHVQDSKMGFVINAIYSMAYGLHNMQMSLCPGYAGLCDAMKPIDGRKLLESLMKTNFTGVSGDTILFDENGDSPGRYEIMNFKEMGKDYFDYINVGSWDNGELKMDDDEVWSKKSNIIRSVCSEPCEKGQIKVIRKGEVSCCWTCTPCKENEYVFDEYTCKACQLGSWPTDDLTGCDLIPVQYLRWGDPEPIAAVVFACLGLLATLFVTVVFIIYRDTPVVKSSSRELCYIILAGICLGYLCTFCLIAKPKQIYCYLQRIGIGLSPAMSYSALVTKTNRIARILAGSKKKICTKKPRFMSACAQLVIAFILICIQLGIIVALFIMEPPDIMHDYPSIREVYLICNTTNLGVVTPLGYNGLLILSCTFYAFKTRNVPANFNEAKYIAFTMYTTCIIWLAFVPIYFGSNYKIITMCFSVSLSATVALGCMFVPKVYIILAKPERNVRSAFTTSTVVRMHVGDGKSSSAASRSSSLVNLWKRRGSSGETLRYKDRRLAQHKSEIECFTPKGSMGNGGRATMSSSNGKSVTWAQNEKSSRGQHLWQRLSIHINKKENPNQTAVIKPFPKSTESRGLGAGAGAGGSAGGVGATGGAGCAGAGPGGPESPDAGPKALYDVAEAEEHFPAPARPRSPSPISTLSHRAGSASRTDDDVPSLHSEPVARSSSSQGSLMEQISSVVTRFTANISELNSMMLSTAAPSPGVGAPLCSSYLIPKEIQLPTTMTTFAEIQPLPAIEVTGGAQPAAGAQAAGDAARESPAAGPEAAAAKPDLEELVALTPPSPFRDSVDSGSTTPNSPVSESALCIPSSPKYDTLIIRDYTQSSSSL

Structure (SMILES): N[C@H](C(=O)O)[C@@H]1C[C@@H]1S(=O)(=O)O
- Ki [1]: 0.1 µM
- Ki [2]: > 300 µM
- Ki [3]: > 300 µM
- Ki [4]: > 300 µM
- Ki [5]: 3.3 µM
- Ki [6]: > 300 µM
- Ki [7]: 19 µM

Structure (SMILES): N[C@@H](CCS(=O)(=O)O)C(=O)O
- Ki [1]: 2.4 µM
- Ki [2]: 54 µM
- Ki [3]: > 300 µM
- Ki [4]: 53 µM
- Ki [5]: 9.9 µM
- Ki [6]: 87 µM
- Ki [7]: 2.7 µM

- Ki [7]: 0.009 µM
Structure (SMILES): N[C@H](C(=O)O)[C@@H]1C[C@@H]1C(=O)O

Structure (SMILES): N[C@H](C(=O)O)[C@H]1C[C@@H]1S(=O)(=O)O
- Ki [1]: > 300 µM
- Ki [2]: 49 µM
- Ki [3]: 235 µM
- Ki [4]: > 300 µM
- Ki [5]: > 300 µM
- Ki [6]: 34 µM
- Ki [7]: > 300 µM

Structure (SMILES): N[C@H](C(=O)O)[C@@H]1C[C@H]1S(=O)(=O)O
- Ki [1]: > 300 µM
- Ki [2]: 81 µM
- Ki [3]: > 300 µM
- Ki [4]: > 300 µM
- Ki [5]: 34 µM
- Ki [6]: 77 µM
- Ki [7]: > 300 µM

Structure (SMILES): N[C@@H](C(=O)O)[C@H]1C[C@@H]1S(=O)(=O)O
- Ki [1]: 96 µM
- Ki [2]: > 300 µM
- Ki [3]: > 300 µM
- Ki [4]: > 300 µM
- Ki [5]: 34 µM
- Ki [6]: > 300 µM
- Ki [7]: 22 µM

Structure (SMILES): N[C@@H](C(=O)O)[C@H]1C[C@H]1S(=O)(=O)O
- Ki [1]: 72 µM
- Ki [2]: 55 µM
- Ki [3]: > 300 µM
- Ki [4]: > 300 µM
- Ki [5]: 64 µM
- Ki [6]: > 300 µM
- Ki [7]: 61 µM

Structure (SMILES): N[C@@H](C(=O)O)[C@@H]1C[C@H]1S(=O)(=O)O
- Ki [1]: 72 µM
- Ki [2]: 67 µM
- Ki [3]: > 300 µM
- Ki [4]: > 300 µM
- Ki [5]: 71 µM
- Ki [6]: 254 µM
- Ki [7]: 150 µM

Structure (SMILES): N[C@@H](C(=O)O)[C@@H]1C[C@@H]1S(=O)(=O)O
- Ki [1]: > 300 µM
- Ki [2]: > 300 µM
- Ki [3]: > 300 µM
- Ki [4]: > 300 µM
- Ki [5]: 35 µM
- Ki [6]: > 300 µM
- Ki [7]: > 300 µM

Structure (SMILES): N[C@H](C(=O)O)[C@H]1C[C@H]1S(=O)(=O)O
- Ki [1]: > 300 µM
- Ki [2]: > 300 µM
- Ki [3]: > 300 µM
- Ki [4]: > 300 µM
- Ki [5]: > 300 µM
- Ki [6]: > 300 µM
- Ki [7]: > 300 µM

Reference: ChEMBL document CHEMBL1148790, “Synthesis, molecular modeling studies, and preliminary pharmacological characterization of all possible 2-(2'-sulfonocyclopropyl)glycine stereoisomers as conformationally constrained L-homocysteic acid analogs” (J Med Chem, 2007)
